Patent US8785421B1, “Use of vitamin D in dairy mastitis treatment” (The United States of America as represented by the …, priority 2011, dated 2014)

Tests used:
Pseudomonas = assay: Mastitis-infected cow with chronic Pseudomonas infection treated by intramammary infusion; assay type: in vivo; details: 100 ug infusions twice a day in the infected gland; after 2 treatments; from thousands of bacteria per ml; detection limit 100 cfu/ml; FIG. 4
Procedure: After weeks of various conventional treatment the cow was treated with 25(OH)D3 as described in Example 1, with 100 ug infusions twice a day in the infected gland. The treatment of this animal with 25(OH)D3 caused the bacterial load to go from thousands of bacteria per ml to at or below our detection limit of 100 cfu/ml after 2 treatments (FIG. 4).

S. uberis = assay: Experimental S. uberis intramammary infection (mastitis) treated by intramammary infusion after each milking; assay type: in vivo, cows; details: for reduction in bacterial load: 100 μg in 10-ml FBS after each milking, vs FBS sham control
Procedure: Seven of the animals were treated after each milking with 100 μg of 25(OH)D3 in 10-ml fetal bovine serum (FBS), the other seven were sham treated with 10-ml FBS only. […] The lower bacterial load in the 25(OH)D3 treated animals and therefore a likely reduction of pyrogens explains the reduction in fever seen in the treated group. The level of bovine serum albumin (BSA) in the milk is used as an indicator of changes in the mammary vascular permeability in the gland and typically increases with an acute infection. […] Fewer bacteria in the treated group (FIG. 1) leads to less tissue damage (FIG. 3) and leads to less pyrogens going systemic (FIG. 2). Also, after the fourth day of the infection two cows (out of 6) in the 25D3 had no infection, whereas, all six were infected at this time point in the control treated group.

Cyp24A1 = Cyp24A1 gene expression in milk cells after intramammary infusion into an infected mammary quarter; assay type: in vivo; details: single 100 μg infusion into infected mammary quarter of two cows; compared to cells obtained prior to infusion

With `C=C1CC[C@H](O)C/C1=C/C=C1\CCC[C@]2(C)[C@@H]([C@H](C)CCCC(C)(C)O)CC[C@@H]12` [25(OH)D3, 25-hydroxy vitamin D3] as the compound, how does the bacterial load (Pseudomonas) read?
The bacterial load was at most 100 cfu/ml.

What about the “reduction in bacterial load” value (S. uberis; day 2 of the experiment) of the same compound?
Its value is 2-4 log.

And the “reduction in bacterial load” value (S. uberis; days 4 and 5 post infection)?
The value was 1.5-2 log.

And the “cows with no infection” value (S. uberis; after the fourth day of the infection, all six control cows were infected)?
Its value is “two”.

What about the “level of bovine serum albumin (BSA) in the milk” value (S. uberis; indicator of mammary vascular permeability, treated vs control, FIG. 3) of the same compound?
Its value is “not statistically significant”.

What about the “bacterial counts in infected glands” value (S. uberis; repeated measures analysis, significant difference (p<0.05) at day 2 AM and day 2 PM, FIG. 1) of the same compound?
Its value is “significantly (p<0.05) reduced”.

What about the rectal temperatures (S. uberis; treated vs control cows at two time points (p<0.05), FIG. 2) of the same compound?
Its rectal temperatures is “significantly lower”.

And the “gene expression of Cyp24A1” value (Cyp24A1)?
Its value is “increased”.
